Laboratory results as given in doi:10.1101/2021.10.13.464265v1 (biorxiv, 2021).
Where two headings read alike, the source gives them in different places.

Tests used:
[1] = test system: E. coli csrA::kanB pBAD-nahKm; experiment: microbe, parasite or virus in culture; parameters: species or system E. coli MG1655 csrA::kanB; settings: Escherichia coli, read-out: pBAD-nahKm [Ara] = 50 mg/L
[2] = test system: E. coli csrA::kanB pBAD-nahK; experiment: microbe, parasite or virus in culture; parameters: species or system E. coli MG1655 csrA::kanB; settings: Escherichia coli, read-out: pBAD-nahK [Ara] = 0 mg/L
[3] = test system: E. coli csrA::kanB pBAD-nahK; experiment: microbe, parasite or virus in culture; parameters: species or system E. coli MG1655 csrA::kanB; settings: Escherichia coli, read-out: pBAD-nahK [Ara] = 50 mg/L
[4] = test system: E. coli csrA::kanB; experiment: microbe, parasite or virus in culture; parameters: species or system E. coli MG1655 csrA::kanB; settings: Escherichia coli, read-out: csrA::kanB [Ara] = 0 mg/L
[5] = test system: E. coli csrA::kanB pBAD-nahK; experiment: microbe, parasite or virus in culture; parameters: species or system E. coli MG1655 csrA::kanB; settings: Escherichia coli, read-out: pBAD-nahK [Ara] = 50 mg/L, DTT
[6] = target: T1, PgaCDm (PgaC V227L PgaD N75D/K76E) (Escherichia coli, UniProt P75905, V227L); experiment: WGA-HRP dot blot of PNAG, densitometry; type: biochemical
T1 sequence (P75905 1-441 V227L): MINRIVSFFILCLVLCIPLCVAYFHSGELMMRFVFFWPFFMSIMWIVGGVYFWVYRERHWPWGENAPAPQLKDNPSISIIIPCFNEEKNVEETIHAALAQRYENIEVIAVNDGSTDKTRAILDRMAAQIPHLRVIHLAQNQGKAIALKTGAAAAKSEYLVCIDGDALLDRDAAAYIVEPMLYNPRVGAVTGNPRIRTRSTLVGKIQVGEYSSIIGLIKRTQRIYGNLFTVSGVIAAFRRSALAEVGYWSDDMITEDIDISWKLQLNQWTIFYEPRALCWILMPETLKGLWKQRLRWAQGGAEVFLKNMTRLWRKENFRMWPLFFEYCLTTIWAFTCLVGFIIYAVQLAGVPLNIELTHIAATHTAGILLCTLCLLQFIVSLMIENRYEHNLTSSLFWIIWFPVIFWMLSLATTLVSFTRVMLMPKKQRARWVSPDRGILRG
T1 sequence (P69432 1-137 N75D/K76E partner): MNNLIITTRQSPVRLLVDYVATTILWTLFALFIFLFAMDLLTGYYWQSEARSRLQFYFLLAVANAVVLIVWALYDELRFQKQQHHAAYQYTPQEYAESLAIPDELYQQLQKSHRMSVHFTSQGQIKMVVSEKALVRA

IC50 [1] [µM]	IC50 [2] [µM]	IC50 [3] [µM]	Structure (SMILES)	IC50 [6] [µM]	also measured
> 2000	> 2000	13 ± 3	CC(=O)N[C@H]1C(O)O[C@H](CF)[C@@H](O)[C@@H]1O (mixture of isomers) [1-F, 6-fluoroGlcNAc]		
500 ± 100	330 ± 10	8 ± 2	CC(=O)N[C@H]1C(O)O[C@H](C)[C@@H](O)[C@@H]1O (mixture of isomers) [1-H, 6-deoxyGlcNAc]		IC50 [4]: 530 ± 30 µM
> 2000	> 2000	150 ± 60	CC(=O)NC1C(O)OC(CN)C(O)C1O (centres unmarked) [1-NH2, 6-aminoGlcNAc]		
> 2000	> 2000	130	CC(=O)NC1C(O)OC(CS)C(O)C1O (centres unmarked) [1-SH, 6-thioGlcNAc]		IC50 [5]: 64 ± 2 µM
			CC(=O)N[C@H]1[C@@H](OP(=O)(O)OP(=O)(O)OC[C@H]2O[C@@H](n3ccc(=O)[nH]c3=O)[C@H](O)[C@@H]2O)O[C@H](CF)[C@@H](O)[C@@H]1O [2-F, UDP-6-fluoroGlcNAc]	150 ± 10	
			CC(=O)N[C@H]1[C@@H](OP(=O)(O)OP(=O)(O)OC[C@H]2O[C@@H](n3ccc(=O)[nH]c3=O)[C@H](O)[C@@H]2O)O[C@H](C)[C@@H](O)[C@@H]1O [2-H, UDP-6-deoxyGlcNAc]	30	
			CC(=O)N[C@H]1[C@@H](OP(=O)(O)OP(=O)(O)OC[C@H]2O[C@@H](n3ccc(=O)[nH]c3=O)[C@H](O)[C@@H]2O)O[C@H](CN=[N+]=[N-])[C@@H](O)[C@@H]1O [2-N3, 6-azido analogue]	> 10000	
			CC(=O)N[C@H]1[C@@H](OP(=O)(O)OP(=O)(O)OC[C@H]2O[C@@H](n3ccc(=O)[nH]c3=O)[C@H](O)[C@@H]2O)O[C@H](CN)[C@@H](O)[C@@H]1O [2-NH2, 6-amino derivative]	480 ± 60	
			CC(=O)N[C@H]1[C@@H](OP(=O)(O)OP(=O)(O)OC[C@H]2O[C@@H](n3ccc(=O)[nH]c3=O)[C@H](O)[C@@H]2O)O[C@H](CS)[C@@H](O)[C@@H]1O [2-SH, UDP-6-thioGlcNAc]	60 ± 20	
			O=c1ccn([C@@H]2O[C@H](COP(=O)(O)OP(=O)(O)O)[C@@H](O)[C@H]2O)c(=O)[nH]1 [UDP]	2700 ± 900	

Structure (SMILES)	IC50 [1] [µM]	IC50 [2] [µM]	IC50 [3] [µM]	IC50 [6] [µM]	also measured
CC(=O)NC1C(O)OC(CN=[N+]=[N-])C(O)C1O (centres unmarked) [1-N3, 6-azidoGlcNAc]	> 5000	> 5000	2700 ± 400		
